Assays:
Experiment in all cases: KINOMEscan competition binding
Conditions in all cases: compound 2.0 µM
[1] = molecular target: ACVR2B (human) (UniProt Q13705)
[2] = molecular target: ALK (human) (UniProt Q9UM73)
[3] = molecular target: AURKC (human) (UniProt Q9UQB9)
[4] = molecular target: AXL (human) (UniProt P30530)
[5] = molecular target: CAMK2B (human) (UniProt Q13554)
[6] = molecular target: CAMK2G (human) (UniProt Q13555)
[7] = molecular target: CAMKK2 (human) (UniProt Q96RR4)
[8] = molecular target: CDK2 (human) (UniProt P24941)
[9] = molecular target: CRK2 (P.falciparum) (UniProt P61075)
[10] = molecular target: CSNK1G3 (human) (UniProt Q9Y6M4)
[11] = molecular target: DAPK1 (human) (UniProt P53355)
[12] = molecular target: DCLK1 (human) (UniProt O15075)
[13] = system: EGFR (human), P00533 [L861Q]
[14] = system: EGFR (human), P00533 [T790M/L858R]
[15] = molecular target: EPHB6 (human) (UniProt O15197)
[16] = molecular target: FLT3 (human) (UniProt P36888)
[17] = system: FLT3 (human), P36888 [D835H]
[18] = molecular target: HIPK3 (human) (UniProt Q9H422)
[19] = molecular target: JAK2 JH1 catalytic (human) (UniProt O60674)
[20] = molecular target: JAK3 JH1 catalytic (human) (UniProt P52333)
[21] = system: KIT (human), P10721 [L576P]
[22] = molecular target: MAP2K1 (human) (UniProt Q02750)
[23] = molecular target: MAP3K5 (human) (UniProt Q99683)
[24] = molecular target: MAPK1 (human) (UniProt P28482)
[25] = molecular target: MAPK4 (human) (UniProt P31152)
[26] = molecular target: MST4 (human) (UniProt Q9P289)
[27] = molecular target: NEK1 (human) (UniProt Q96PY6)
[28] = molecular target: NEK5 (human) (UniProt Q6P3R8)
[29] = molecular target: PKN3 (M.tuberculosis) (UniProt Q6P5Z2)
[30] = molecular target: PLK4 (human) (UniProt O00444)
[31] = molecular target: PRKG1 (human) (UniProt Q13976)
[32] = molecular target: PRKX (human) (UniProt P51817)
[33] = molecular target: RAF1 (human) (UniProt P04049)
[34] = molecular target: RET (human) (UniProt P07949)
[35] = molecular target: RIOK1 (human) (UniProt Q9BRS2)
[36] = molecular target: RIPK1 (human) (UniProt Q13546)
[37] = molecular target: RIPK2 (human) (UniProt O43353)
[38] = molecular target: ROS1 (human) (UniProt P08922)
[39] = molecular target: RPS6KA6 KD2 (human) (UniProt Q9UK32)
[40] = molecular target: STK16 (human) (UniProt O75716)
[41] = molecular target: TBK1 (human) (UniProt Q9UHD2)
[42] = molecular target: TTK (human) (UniProt P33981)
[43] = molecular target: YSK4 (human) (UniProt Q56UN5)

CAMKK2 (human), sequence (Q96RR4 whole entry, looked up): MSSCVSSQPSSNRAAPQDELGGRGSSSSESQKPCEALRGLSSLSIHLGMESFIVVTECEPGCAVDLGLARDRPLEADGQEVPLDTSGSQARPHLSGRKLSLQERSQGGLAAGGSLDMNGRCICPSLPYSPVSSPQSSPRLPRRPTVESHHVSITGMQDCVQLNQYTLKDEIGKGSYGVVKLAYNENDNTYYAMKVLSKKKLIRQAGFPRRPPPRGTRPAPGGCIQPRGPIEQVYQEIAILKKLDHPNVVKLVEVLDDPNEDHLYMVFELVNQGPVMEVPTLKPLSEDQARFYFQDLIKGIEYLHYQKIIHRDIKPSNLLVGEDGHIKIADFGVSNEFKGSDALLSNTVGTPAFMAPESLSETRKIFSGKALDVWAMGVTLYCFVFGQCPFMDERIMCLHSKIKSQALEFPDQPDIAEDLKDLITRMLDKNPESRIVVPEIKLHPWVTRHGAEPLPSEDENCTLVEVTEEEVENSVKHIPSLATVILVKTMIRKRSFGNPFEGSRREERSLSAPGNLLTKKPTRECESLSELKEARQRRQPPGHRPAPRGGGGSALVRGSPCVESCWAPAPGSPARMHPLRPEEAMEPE
PLK4 (human), sequence (O00444 whole entry, looked up): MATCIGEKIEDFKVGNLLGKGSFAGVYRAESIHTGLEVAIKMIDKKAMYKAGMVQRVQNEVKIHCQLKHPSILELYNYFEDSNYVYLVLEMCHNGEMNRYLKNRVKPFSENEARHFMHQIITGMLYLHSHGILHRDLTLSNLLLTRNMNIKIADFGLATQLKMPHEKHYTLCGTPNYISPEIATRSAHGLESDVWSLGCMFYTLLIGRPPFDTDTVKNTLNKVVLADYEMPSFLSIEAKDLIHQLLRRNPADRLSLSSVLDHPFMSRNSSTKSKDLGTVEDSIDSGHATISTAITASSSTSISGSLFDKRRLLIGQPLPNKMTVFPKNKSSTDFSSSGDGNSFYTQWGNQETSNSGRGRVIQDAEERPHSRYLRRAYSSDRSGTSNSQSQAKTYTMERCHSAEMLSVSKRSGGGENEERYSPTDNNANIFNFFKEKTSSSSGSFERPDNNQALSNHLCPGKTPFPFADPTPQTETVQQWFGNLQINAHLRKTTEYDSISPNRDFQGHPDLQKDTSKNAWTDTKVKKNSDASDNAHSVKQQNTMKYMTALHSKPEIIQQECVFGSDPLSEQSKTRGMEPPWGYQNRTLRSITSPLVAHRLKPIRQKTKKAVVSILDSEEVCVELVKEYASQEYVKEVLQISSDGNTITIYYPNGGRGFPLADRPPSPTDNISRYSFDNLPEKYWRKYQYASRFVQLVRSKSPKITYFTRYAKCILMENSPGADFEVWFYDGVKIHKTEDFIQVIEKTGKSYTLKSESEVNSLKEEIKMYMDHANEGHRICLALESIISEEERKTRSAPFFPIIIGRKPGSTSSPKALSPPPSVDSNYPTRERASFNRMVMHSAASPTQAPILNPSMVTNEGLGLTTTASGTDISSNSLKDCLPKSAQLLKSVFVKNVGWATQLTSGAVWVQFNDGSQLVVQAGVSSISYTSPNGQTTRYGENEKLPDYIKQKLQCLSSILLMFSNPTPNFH
JAK3 JH1 catalytic (human), sequence (P52333 whole entry, looked up): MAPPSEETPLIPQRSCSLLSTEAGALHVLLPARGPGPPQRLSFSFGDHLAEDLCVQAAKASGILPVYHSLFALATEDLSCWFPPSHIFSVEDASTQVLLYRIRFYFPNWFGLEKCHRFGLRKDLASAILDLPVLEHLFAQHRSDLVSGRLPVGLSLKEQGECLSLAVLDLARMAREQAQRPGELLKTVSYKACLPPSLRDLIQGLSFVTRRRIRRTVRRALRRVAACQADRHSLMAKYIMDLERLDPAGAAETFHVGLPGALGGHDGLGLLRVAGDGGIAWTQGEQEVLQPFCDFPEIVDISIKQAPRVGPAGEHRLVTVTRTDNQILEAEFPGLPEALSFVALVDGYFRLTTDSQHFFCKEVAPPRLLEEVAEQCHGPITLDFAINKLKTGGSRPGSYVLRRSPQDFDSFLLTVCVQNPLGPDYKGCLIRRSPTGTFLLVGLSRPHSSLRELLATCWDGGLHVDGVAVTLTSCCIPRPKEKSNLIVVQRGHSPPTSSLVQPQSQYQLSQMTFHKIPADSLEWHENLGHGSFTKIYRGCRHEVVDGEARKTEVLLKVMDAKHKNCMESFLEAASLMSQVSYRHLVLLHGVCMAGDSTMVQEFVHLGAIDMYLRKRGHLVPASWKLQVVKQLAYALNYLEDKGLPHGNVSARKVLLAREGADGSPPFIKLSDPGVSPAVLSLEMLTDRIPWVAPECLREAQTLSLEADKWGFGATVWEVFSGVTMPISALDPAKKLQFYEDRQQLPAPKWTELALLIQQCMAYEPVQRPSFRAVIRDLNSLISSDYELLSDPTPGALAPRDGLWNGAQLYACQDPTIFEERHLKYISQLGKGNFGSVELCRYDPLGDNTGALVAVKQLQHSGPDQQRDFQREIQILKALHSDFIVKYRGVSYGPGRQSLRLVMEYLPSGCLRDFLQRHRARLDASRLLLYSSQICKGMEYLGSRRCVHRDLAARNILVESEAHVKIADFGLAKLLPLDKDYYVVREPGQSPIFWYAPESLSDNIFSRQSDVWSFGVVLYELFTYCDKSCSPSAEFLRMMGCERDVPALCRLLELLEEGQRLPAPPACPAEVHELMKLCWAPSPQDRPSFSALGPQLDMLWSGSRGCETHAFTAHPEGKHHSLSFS
RAF1 (human), sequence (P04049 whole entry, looked up): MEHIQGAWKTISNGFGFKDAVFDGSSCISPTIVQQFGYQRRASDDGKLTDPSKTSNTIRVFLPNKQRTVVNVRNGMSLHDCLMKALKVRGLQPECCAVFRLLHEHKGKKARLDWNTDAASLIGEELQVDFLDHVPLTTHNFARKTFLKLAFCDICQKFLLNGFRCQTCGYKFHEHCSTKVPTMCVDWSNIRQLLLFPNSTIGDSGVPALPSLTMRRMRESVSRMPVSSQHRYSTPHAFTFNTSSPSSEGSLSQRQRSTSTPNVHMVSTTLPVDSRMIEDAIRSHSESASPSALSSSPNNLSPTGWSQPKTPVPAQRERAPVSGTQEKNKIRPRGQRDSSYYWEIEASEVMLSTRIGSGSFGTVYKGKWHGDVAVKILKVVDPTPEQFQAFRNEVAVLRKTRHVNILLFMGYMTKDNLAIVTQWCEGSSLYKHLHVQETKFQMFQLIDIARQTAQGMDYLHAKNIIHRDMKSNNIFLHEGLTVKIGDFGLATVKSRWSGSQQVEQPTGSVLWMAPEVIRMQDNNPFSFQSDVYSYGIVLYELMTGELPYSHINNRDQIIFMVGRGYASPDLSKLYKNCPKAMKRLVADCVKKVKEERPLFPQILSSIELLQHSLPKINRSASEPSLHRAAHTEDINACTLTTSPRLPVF
PRKG1 (human), sequence (Q13976 whole entry, looked up): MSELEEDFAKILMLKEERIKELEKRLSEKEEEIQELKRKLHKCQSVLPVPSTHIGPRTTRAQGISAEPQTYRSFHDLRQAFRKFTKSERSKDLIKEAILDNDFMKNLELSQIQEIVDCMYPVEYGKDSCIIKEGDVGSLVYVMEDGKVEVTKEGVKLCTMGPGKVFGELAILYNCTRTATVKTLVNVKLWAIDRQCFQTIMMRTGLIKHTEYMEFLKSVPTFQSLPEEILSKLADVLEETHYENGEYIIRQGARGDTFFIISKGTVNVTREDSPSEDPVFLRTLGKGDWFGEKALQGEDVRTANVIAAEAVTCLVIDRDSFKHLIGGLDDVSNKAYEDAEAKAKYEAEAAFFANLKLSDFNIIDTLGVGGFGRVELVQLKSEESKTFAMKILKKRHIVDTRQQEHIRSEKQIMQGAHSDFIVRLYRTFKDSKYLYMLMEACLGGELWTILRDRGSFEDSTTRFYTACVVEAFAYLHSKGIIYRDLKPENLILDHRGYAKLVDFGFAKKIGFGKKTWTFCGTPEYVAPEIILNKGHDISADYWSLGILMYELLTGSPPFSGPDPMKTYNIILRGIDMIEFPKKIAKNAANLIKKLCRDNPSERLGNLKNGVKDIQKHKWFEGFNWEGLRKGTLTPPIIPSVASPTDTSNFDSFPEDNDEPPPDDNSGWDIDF
MST4 (human), sequence (Q9P289 whole entry, looked up): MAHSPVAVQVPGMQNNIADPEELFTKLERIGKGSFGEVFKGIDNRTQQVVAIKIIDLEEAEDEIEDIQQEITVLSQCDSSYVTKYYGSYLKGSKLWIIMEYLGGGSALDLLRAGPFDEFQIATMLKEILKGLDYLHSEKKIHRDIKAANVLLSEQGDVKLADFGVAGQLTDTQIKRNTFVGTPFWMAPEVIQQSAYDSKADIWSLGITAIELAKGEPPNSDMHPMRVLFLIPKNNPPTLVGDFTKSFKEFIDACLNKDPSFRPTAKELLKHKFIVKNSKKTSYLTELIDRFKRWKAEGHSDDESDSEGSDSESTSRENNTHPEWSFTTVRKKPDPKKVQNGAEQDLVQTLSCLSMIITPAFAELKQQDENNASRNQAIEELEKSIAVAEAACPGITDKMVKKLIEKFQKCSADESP
PRKX (human), sequence (P51817 whole entry, looked up): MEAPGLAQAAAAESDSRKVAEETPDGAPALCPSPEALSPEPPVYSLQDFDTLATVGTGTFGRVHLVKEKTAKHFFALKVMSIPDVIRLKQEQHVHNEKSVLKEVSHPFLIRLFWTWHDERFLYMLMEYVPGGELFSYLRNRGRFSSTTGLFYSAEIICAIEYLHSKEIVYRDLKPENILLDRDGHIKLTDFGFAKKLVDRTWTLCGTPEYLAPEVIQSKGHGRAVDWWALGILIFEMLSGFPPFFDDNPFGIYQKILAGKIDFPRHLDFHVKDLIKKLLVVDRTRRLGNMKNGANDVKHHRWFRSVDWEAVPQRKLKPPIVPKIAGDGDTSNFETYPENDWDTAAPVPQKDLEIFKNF

SMILES: N#Cc1ccc2ncnc(NCCc3ccc4ccccc4c3)c2c1
- kinase still bound, per cent of control [1]: 89%
- kinase still bound, per cent of control [2]: 100%
- kinase still bound, per cent of control [3]: 84%
- kinase still bound, per cent of control [4]: 88%
- kinase still bound, per cent of control [5]: 88%
- kinase still bound, per cent of control [6]: 100%
- kinase still bound, per cent of control [7]: 100%
- kinase still bound, per cent of control [8]: 93%
- kinase still bound, per cent of control [9]: 100%
- kinase still bound, per cent of control [10]: 81%
- kinase still bound, per cent of control [11]: 89%
- kinase still bound, per cent of control [12]: 89%
- kinase still bound, per cent of control [13]: 60%
- kinase still bound, per cent of control [14]: 100%
- kinase still bound, per cent of control [15]: 100%
- kinase still bound, per cent of control [16]: 79%
- kinase still bound, per cent of control [17]: 98%
- kinase still bound, per cent of control [18]: 78%
- kinase still bound, per cent of control [19]: 100%
- kinase still bound, per cent of control [20]: 100%
- kinase still bound, per cent of control [21]: 86%
- kinase still bound, per cent of control [22]: 96%
- kinase still bound, per cent of control [23]: 95%
- kinase still bound, per cent of control [24]: 100%
- kinase still bound, per cent of control [25]: 87%
- kinase still bound, per cent of control [26]: 77%
- kinase still bound, per cent of control [27]: 100%
- kinase still bound, per cent of control [28]: 70%
- kinase still bound, per cent of control [29]: 100%
- kinase still bound, per cent of control [30]: 100%
- kinase still bound, per cent of control [31]: 85%
- kinase still bound, per cent of control [32]: 93%
- kinase still bound, per cent of control [33]: 100%
- kinase still bound, per cent of control [34]: 90%
- kinase still bound, per cent of control [35]: 71%
- kinase still bound, per cent of control [36]: 85%
- kinase still bound, per cent of control [37]: 100%
- kinase still bound, per cent of control [38]: 95%
- kinase still bound, per cent of control [39]: 86%
- kinase still bound, per cent of control [40]: 51%
- kinase still bound, per cent of control [41]: 100%
- kinase still bound, per cent of control [42]: 75%
- kinase still bound, per cent of control [43]: 86%
